Data set [1] concerns HeLa cells. In words: Apoptosis induction and its reversal in HeLa cells expressing caspase biosensor NES-DEVD-YFP-NLS.
For data set [2], the system named is primary rat heart cells.
Data set [3] deals with primary mouse liver cells.
In data set [4] the test system is Mustela putoris furo (Mpf) brain cells. In words: Apoptosis induction and its reversal in Mpf brain cells (morphology, annexin V-FITC). The format is cell-based, ferret.
Data set [5] concerns liver cells and NIH 3T3 cells. Nature of the data set: Transient actinomycin D exposure after removal of apoptotic inducers (caspase-3 Western blot, trypan blue exclusion). The format is cell-based. The procedure: FIG. 14A-14F: Critical contributing factors in reversal of apoptosis. (FIG. 14A) RNA blot for detecting new RNA synthesis in untreated vs. treated and washed (Washed) liver cells 1 h after a 5-h exposure to 4.5% ethanol and with and without transient exposure (1 h, 1 μg/ml) to actinomycin D (AMD). No s4U served as negative control for the probe binding to RNA. (FIG. 14B) Western blot analysis of the cleavage of caspase-3 (Casp-3) on the total lysate of untreated, treated (5-h exposure to 4.5% ethanol for liver cells, 20-h exposure to 10% DMSO for NIH 3T3 cells), and washed liver cells and NIH 3T3 cells with and without transient exposure to actinomycin D (AMD) immediately after removal of apoptotic stimuli. The AMD-exposed cells were cultured in fresh medium for 23 h and then subjected to the analysis. c, cleaved form. […] The AMD exposed-cells were cultured in fresh medium for 23 h and then subjected to the assay. ns, p>0.05; *p<0.05; n=3 independent experiments. Error bars denote SD. (FIG. 14D) A time-course microarray study in liver cells, log 2-fold change of gene expression comparison between ethanol-induced apoptotic cells (RO), untreated cells (Ctrl), and induced cells that were then washed and further cultured in fresh medium for 3 (R3), 6 (R6), 24 (R24), and 48 h (R48). The log 2 signal values from three biological replicates were averaged (geometric mean) for each time point. […] The corresponding cells were exposed to the inhibitors after apoptotic stimuli had been removed from the treated cells and then further cultured for 24 h. ns, p>0.05; *P<0.05; n=3 independent experiments. Error bars denote SD. (FIG. 14F) Proposed model for reversal of apoptosis. Expression of multiple prosurvival factors and new transcripts during reversal of apoptosis promotes cell survival by suppressing the activated apoptotic pathways and repairing the cells.
To gain insight into the mechanism by which cells reverse apoptosis and survive, we first tested whether new transcription is required. […]

In data set [6] the test system is primary mouse macrophages. Nature of the data set: Apoptosis induction and its reversal in primary macrophages (morphology). The format is cell-based.
The subject of data set [7] is NIH 3T3 cells. In words: Apoptosis induction and its reversal in NIH 3T3 cells (morphology, caspase-3 Western blot). The format is cell-based. (A western blot detects proteins with antibodies after separation by electrophoresis.)
[8] abbreviates: 4.3% ethanol 5 h, washed, cultured 2 h.
The mark [9] stands for this setting: transient exposure (1 h, 1 μg/ml) immediately after removal of apoptotic stimuli, then 23 h fresh medium.

Numbered stars: 1 amine (or outer) side, 2 acyl side, 3 side chain; on linkers, the order of the positions; unused ones are H or OH. Bridge positions count the residues as written; N and C are the ends. Square brackets hold non-standard residues; d marks the D form. Peptide text beside a SMILES is read from it. I, II: the chains in the order shown. Actinocin(9to1) = Cc1c2oc3c(C)ccc(C(=O)[*:1])c3nc-2c(C(=O)[*:2])c(N)c1=O; NMeV = CN[C@H](C(=O)O)C(C)C; Sar = CNCC(=O)O Where only a bound is given, the exact number is not on record here.

The values that follow come from patent US11385223B2, “Anastasis biosensor” (THE JOHNS HOPKINS UNIVERSITY, priority 2012, dated 2022).

As to `CCO` [ethanol], in data set [1] (setting [8]), the “cells that recovered normal morphology after removal of the inducer” value is recorded as above 90% and the “recovered cells that retained nuclear YFP” value amounted to 32%. In data set [1] (4.3% ethanol for 3 h), the “cells exhibiting morphological hallmarks of apoptosis (nuclear condensation, membrane blebbing, cell shrinkage)” value was “vast majority”. For the same molecule, in data set [1] (4.3% ethanol, then washed), the “time to regain normal morphology after removal of the apoptotic inducer” value is given as at most 2 h. The “formation of micronuclei after reversal of apoptosis” value in data set [1] (after reversal of ethanol-induced apoptosis, cytokinesis-block micronucleus assay) is recorded as “Increased in formation of micronuclei”. Further, the “cells that recovered morphology after removal of the inducer” value (“cells that recovered morphology” for short) in data set [2] (4.5% ethanol 5 h, then removal of inducer for 24 h) is listed as around 90%. Further, in data set [2] (4.5% ethanol 5 h, annexin V-FITC applied ten minutes before washing), the “cells labeled with annexin V-FITC” value is given as “Greater than 90%”. The “cells displaying morphological hallmarks of apoptosis (nuclear condensation, mitochondrial fragmentation, cell shrinkage)” value (from here on “cells displaying morphological hallmarks”) in data set [2] (4.5% ethanol for 5 h) was “Greater than 90%”. Besides, the “cells that reversed all signs of apoptosis after removal of the inducer” value in data set [3] (4.5% ethanol 5 h, then washed, 24 h) is above 90%. For the same molecule, the “morphological hallmarks of apoptosis (cell shrinkage, plasma membrane blebbing, nuclear condensation, altered mitochondrial morphology)” value in data set [3] (4.5% ethanol for 2.5 h, time-lapse live-cell microscopy) is listed as “displayed morphological hallmarks of apoptosis”. In addition, the “liver cells that shrank and displayed morphological hallmarks of apoptosis” value in data set [3] (4.5% ethanol for 5 h) is recorded as above 80%. Moreover, in data set [3] (liver cells induced with ethanol), the “caspase-3 cleavage (Western blot)” value is “increase in cleaved caspase-3”.
Turning to `C/C1=C\[C@H](C)C[C@H](C)OC(=O)C[C@H](c2ccc(O)cc2)NC(=O)[C@@H](Cc2c(Br)[nH]c3ccccc23)N(C)C(=O)[C@H](C)NC(=O)[C@@H](C)C1` [jasplakinolide], the “cells that recovered morphology” value in data set [4] (2 μM jasplakinolide 50 h, then removal of inducer for 24 h) is recorded as around 90%. The “cells labeled with annexin V-FITC” value in data set [4] (2 μM jasplakinolide 50 h, annexin V-FITC applied ten minutes before washing) is reported as “Greater than 90%”. In addition, the “cells displaying morphological hallmarks” value in data set [4] (2 μM jasplakinolide for 50 h) was “Greater than 90%”.
`Cc1c2oc3c(C)ccc(C(=O)N[C@@H]4C(=O)N[C@H](C(C)C)C(=O)N5CCC[C@H]5C(=O)N(C)CC(=O)N(C)[C@@H](C(C)C)C(=O)O[C@@H]4C)c3nc-2c(C(=O)N[C@@H]2C(=O)N[C@H](C(C)C)C(=O)N3CCC[C@H]3C(=O)N(C)CC(=O)N(C)[C@@H](C(C)C)C(=O)O[C@@H]2C)c(N)c1=O` [actinomycin D] (I: T[dV]P[Sar][NMeV] / II: T[dV]P[Sar][NMeV]; ester I:1-I:C, II:1-II:C; linker I:N-II:N via Actinocin(9to1)): the “cell death in control cells not treated with apoptotic inducers” value in data set [5] (same concentration of actinomycin D) was “did not cause significant cell death”. For the same molecule, in data set [5] (setting [9]), the “caspase-3 cleavage (Western blot) after removal of apoptotic inducers” value was “persistence of cleaved caspase-3” and the “cell death by trypan blue staining after removal of apoptotic inducers” value is reported as “irreversible cell death”.
Turning to `CC(C)(O)/C=C/C(=O)[C@](C)(O)[C@H]1[C@H](O)C[C@@]2(C)[C@@H]3CC=C4[C@@H](C=C(O)C(=O)C4(C)C)[C@]3(C)C(=O)C[C@]12C` [cucurbitacin I], in data set [6] (1 μM cucurbitacin I 24 h, then removal of inducer for 24 h), the “cells that recovered morphology” value is on record as around 90%. Moreover, in data set [6] (1 μM cucurbitacin I for 24 h), the “cells displaying morphological hallmarks” value is “Greater than 90%”.
On to `C[S+](C)[O-]` [DMSO, dimethyl sulfoxide], for which the “cells that reversed all signs of apoptosis after removal of the inducer” value in data set [7] (10% DMSO 20 h, then washed, 24 h) is reported as above 90%. In addition, the “NIH 3T3 cells exhibiting multiple hallmarks of apoptosis” value in data set [7] (10% DMSO for 20 h) is reported as above 90%. The “caspase-3 cleavage (Western blot)” value in data set [7] (NIH 3T3 cells induced with DMSO) is “increase in cleaved caspase-3”.
